Source: paper PMC3417242 (Journal of medicinal chemistry, 2012)
Read-outs that look alike come from different tables or passages of the source.

How the values were obtained:
[1] = system: H146 cell line; test: Cell death induction by trypan blue assay; assay type: cell-based, Human; settings: 24 h
[2] = system: H146 cell line; test: Western blotting of caspase-3 and PARP cleavage in cells; assay type: cell-based, Human; settings: 24 h
[3] = molecular target: T1, Bcl-xL (Homo sapiens, UniProt Q07817); test: Fluorescence polarization-based; assay type: binding
[4] = system: H146 xenograft tumor tissues; test: In vivo pharmacodynamic; set-up: species or system SCID mice; settings: at its maximum tolerated dose (data not shown)
[5] = molecular target: T1, Bcl-xL; settings: read-out: Ki, binding to Bcl-xL; previously reported; cited from earlier work
[6] = system: H146 small-cell lung cancer cell line; test: Cell growth inhibition, H146; assay type: cell-based, Human
[7] = system: H1417 small-cell lung cancer cell line; test: Cell growth inhibition, H1417; assay type: cell-based, Human
[8] = molecular target: T2, Bcl-2 (Homo sapiens, UniProt P10415); test: Fluorescence polarization-based; assay type: binding; settings: for times less potent than 12 in binding to Bcl-2: compared with compound 12
[9] = system: H146, H1417 and H1963 cancer cell lines; assay type: cell-based, Human
[10] = molecular target: T2, Bcl-2; test: Cell-free mitochondrial functional assay, Bcl-2; settings: compared with compound 1
[11] = system: H146 cancer cells; test: Release of cytochrome C from mitochondria in cells; assay type: cell-based, Human; settings: for Release of cytochrome C and cleavage of PARP at 30 nM: 2 h, H146 cells; for Release of cytochrome C from mitochondria in H146 cells: treatment as short as 2 h
[12] = system: SCID mice; test: Toxicity in SCID mice; assay type: in vivo; settings: 25 mg/kg, daily intravenous dosing, five days a week for 2 weeks
[13] = system: H146 xenograft model; test: In vivo efficacy study, H146 xenograft model; settings: 25 mg/kg daily i.v. 5 days a week for 2 weeks
[14] = system: H1963 small-cell lung cancer cell line; test: Cell growth inhibition, H1963; assay type: cell-based; settings: read-out: Cell Growth Inhibition (IC50 ± SD) H1963

T2 sequence (P10415 whole entry): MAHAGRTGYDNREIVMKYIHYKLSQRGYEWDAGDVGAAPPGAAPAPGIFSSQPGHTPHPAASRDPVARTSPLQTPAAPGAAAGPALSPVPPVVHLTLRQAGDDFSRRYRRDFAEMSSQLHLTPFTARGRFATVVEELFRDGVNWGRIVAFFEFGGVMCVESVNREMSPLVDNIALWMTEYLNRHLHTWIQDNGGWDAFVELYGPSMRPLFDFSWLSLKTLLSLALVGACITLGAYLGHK
T1 sequence (Q07817 whole entry): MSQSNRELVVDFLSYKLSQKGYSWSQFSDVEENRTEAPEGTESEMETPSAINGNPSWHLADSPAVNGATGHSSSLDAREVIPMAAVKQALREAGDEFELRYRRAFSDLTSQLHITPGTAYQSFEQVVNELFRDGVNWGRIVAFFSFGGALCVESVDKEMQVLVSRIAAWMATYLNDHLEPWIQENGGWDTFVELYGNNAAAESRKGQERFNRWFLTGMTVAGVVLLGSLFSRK

For CN(C)CC[C@H](CSc1ccccc1)Nc1ccc(S(=O)(=O)NC(=O)c2ccc(N3CCN(Cc4ccccc4-c4ccc(Cl)cc4)CC3)cc2)cc1[N+](=O)[O-] [Compound 1, reference compound], which “Cell death induction in H146” value [1] is on record?
Its value is “effectively induce cell death in H146 in a dose-dependent manner”.

What about the “Cleavage of caspase-3 and PARP in H146” value [2] of the same molecule?
Its value is “induce cleavage of caspase-3 and poly (ADP- ribose) polymerase (PARP) in a dose-dependent manner”.

Which Ki ([3]; read-out: Binding Affinities Bcl-xL Ki ± SD, FP competitive binding) does the source give for CCc1c(-c2ccc(Cl)cc2)c(-c2cccc(N3CCN(c4ccc(NS(=O)(=O)c5ccc(N[C@H](CCN(C)C)CSc6ccccc6)c([N+](=O)[O-])c5)cc4)CC3)c2)c(C(=O)O)n1C [Compound 6] here?
Its Ki is less than 0.001 µM.

What about the “Apoptosis induction in H146 xenograft tumor tissues” value [4] of the same molecule?
Its value is “fails to induce robust apoptosis”.

And the Ki [5]?
Its Ki is less than 0.001 µM.

Which results are given for CN1CCN(CCCNC(=O)c2c(-c3ccccc3)c(-c3ccc(Cl)cc3)cn2CC[C@H](O)CO)CC1 [Compound 7, reference compound]?
IC50 ([6]; Homo sapiens, NCI-H146, read-out: Cell Growth Inhibition (IC50 ± SD) H146): > 10 µM; IC50 ([7]; Homo sapiens, NCI-H1417, read-out: Cell Growth Inhibition (IC50 ± SD) H1417): > 10 µM

For Cc1c(C(=O)NCCCN2CCN(C)CC2)c(-c2ccccc2)c(-c2ccc(Cl)cc2)n1C [Compound 8, 5-(4-Chlorophenyl)-1,2-dimethyl-N-(3-(4-methylpiperazin-1-yl)propyl)-4-phenyl-1H-pyrrole-3-carboxamide], which “times more potent than 7 in binding to Bcl-2” value ([8]; Ki compared with compound 7) is on record?
Its value is 2 times.

What about the “times more potent than 7 in binding to Bcl-xL” value ([3]; Ki compared with compound 7) of the same molecule?
The value was 2 times.

What about the “Cellular activity (cell growth inhibition)” value [9] of the same molecule?
The value was “minimal cellular activity”.

With Cc1c(C(=O)NCCCN2CCN(C)CC2)c(-c2cccc(N3CCN(c4ccc(NS(=O)(=O)c5ccc(N[C@H](CCN(C)C)CSc6ccccc6)c([N+](=O)[O-])c5)cc4)CC3)c2)c(-c2ccc(Cl)cc2)n1C [Compound 10, (R)-5-(4-Chlorophenyl)-4-(3-(4-(4-(4-((4-(dimethylamino)-1-(phenylthio)butan-2-yl)amino)-3-nitrophenylsulfonamido)phenyl)piperazin-1-yl)phenyl)-1,2-dimethyl-N-(3-(4-methylpiperazin-1-yl)propyl)-1H-pyrrole-3-carboxamide] as the molecule, how does the “times less potent than 1 in the Bcl-2 functional assay” value [10] read?
Its value is 3 times.

Which “times more potent than compound 10 in cell growth inhibition” value [9] does the source give for CNC(=O)c1c(-c2cccc(N3CCN(c4ccc(NS(=O)(=O)c5ccc(N[C@H](CCN(C)C)CSc6ccccc6)c([N+](=O)[O-])c5)cc4)CC3)c2)c(-c2ccc(Cl)cc2)n(C)c1C [Compound 11, (R)-5-(4-Chlorophenyl)-4-(3-(4-(4-(4-((4-(dimethylamino)-1-(phenylthio)butan-2-yl)amino)-3-nitrophenylsulfonamido)phenyl)piperazin-1-yl)phenyl)-N,1,2-trimethyl-1H-pyrrole-3-carboxamide] here?
Its value is 2–4 times.

Which “Cell death induction in H146” value [1] does the source give for Cc1c(C(=O)O)c(-c2cccc(N3CCN(c4ccc(NS(=O)(=O)c5ccc(N[C@H](CCN(C)C)CSc6ccccc6)c([N+](=O)[O-])c5)cc4)CC3)c2)c(-c2ccc(Cl)cc2)n1C [Compound 12, (R)-5-(4-Chlorophenyl)-4-(3-(4-(4-(4-((4-(dimethylamino)-1-(phenylthio)butan-2-yl)amino)-3-nitrophenylsulfonamido)phenyl)piperazin-1-yl)phenyl)-1,2-dimethyl-1H-pyrrole-3-carboxylic acid] here?
The value was “effectively induce cell death in H146 in a dose-dependent manner”.

What about the “Cleavage of caspase-3 and PARP in H146” value [2] of the same molecule?
The value was “induce cleavage of caspase-3 and poly (ADP- ribose) polymerase (PARP) in a dose-dependent manner”.

What about the “times more potent than compound 10 in cell growth inhibition” value [9] of the same molecule?
Its value is 2–4 times.

With Cc1cc(-c2cccc(N3CCN(c4ccc(NS(=O)(=O)c5ccc(N[C@H](CCN(C)C)CSc6ccccc6)c([N+](=O)[O-])c5)cc4)CC3)c2)c(-c2ccc(Cl)cc2)n1C [Compound 13, (R)-N-(4-(4-(3-(2-(4-Chlorophenyl)-1,5-dimethyl-1H-pyrrol-3-yl)phenyl)piperazin-1-yl)phenyl)-4-((4-(dimethylamino)-1-(phenylthio)butan-2-yl)amino)-3-nitrobenzenesulfonamide] as the molecule, how does the “times less potent than 12 in binding to Bcl-2” value [8] read?
Its value is 100 times.

Which “Cell death induction in H146 at 10 nM” value [1] does the source give for CCn1c(C)c(C(=O)O)c(-c2cccc(N3CCN(c4ccc(NS(=O)(=O)c5ccc(N[C@H](CCN(C)C)CSc6ccccc6)c([N+](=O)[O-])c5)cc4)CC3)c2)c1-c1ccc(Cl)cc1 [Compound 14, (R)-5-(4-Chlorophenyl)-4-(3-(4-(4-(4-((4-(dimethylamino)-1-(phenylthio)butan-2-yl)amino)-3-nitrophenylsulfonamido)phenyl)piperazin-1-yl)phenyl)-1-ethyl-2-methyl-1H-pyrrole-3-carboxylic acid] here?
The value was “induce robust cell death”.

And the “Cell death induction in H146” value [1]?
Its value is “effectively induce cell death in H146 in a dose-dependent manner”.

What about the “Cleavage of caspase-3 and PARP in H146” value [2] of the same molecule?
The value was “induce cleavage of caspase-3 and poly (ADP- ribose) polymerase (PARP) in a dose-dependent manner”.

What about the “Release of cytochrome C and cleavage of PARP at 30 nM” value [11] of the same molecule?
The value was “robust”.

What about the “Release of cytochrome C from mitochondria in H146 cells” value [11] of the same molecule?
The value was “induces a release of cytochrome C in a dose-dependent manner”.

What about the “Tolerability in SCID mice” value [12] of the same molecule?
The value was “well tolerated”.

And the “Inhibition of tumor growth” value [13]?
Its value is “very effective in inhibition of tumor growth”.

And the “Maximum weight loss during the treatment” value [13]?
The value was less than 10%.

What about the “Other signs of toxicity” value [13] of the same molecule?
The value was “no other signs of toxicity observed”.

And the “Tumor regression during the treatment phase” value [13]?
Its value is “capable of achieving tumor regression”.

What does the source list for Cc1c(C(=O)O)c(-c2cccc(N3CCN(c4ccc(NS(=O)(=O)c5ccc(N[C@H](CCN(C)C)CSc6ccccc6)c([N+](=O)[O-])c5)cc4)CC3)c2)c(-c2ccc(Cl)cc2)n1C(C)C [Compound 15, (R)-5-(4-Chlorophenyl)-4-(3-(4-(4-(4-((4-(dimethylamino)-1-(phenylthio)butan-2-yl)amino)-3-nitrophenylsulfonamido)phenyl)piperazin-1-yl)phenyl)-1-isopropyl-2-methyl-1H-pyrrole-3-carboxylic acid]?
Cell death induction in H146 at 10 nM [1]: induce robust cell death; Cell death induction in H146 [1]: effectively induce cell death in H146 in a dose-dependent manner; Cleavage of caspase-3 and PARP in H146 [2]: induce cleavage of caspase-3 and poly (ADP- ribose) polymerase (PARP) in a dose-dependent manner; Release of cytochrome C and cleavage of PARP at 30 nM [11]: robust; Release of cytochrome C from mitochondria in H146 cells [11]: induces a release of cytochrome C in a dose-dependent manner; Tolerability in SCID mice [12]: toxic to the animals which had severe weight loss; times more potent than compound 1 in cell growth inhibition ([9]; direct comparison): 10–100 times

With Cc1c(C(=O)O)c(-c2cccc(N3CCN(c4ccc(NS(=O)(=O)c5ccc(N[C@H](CCN(C)C)CSc6ccccc6)c([N+](=O)[O-])c5)cc4)CC3)c2)c(-c2ccc(Cl)cc2)n1C1CC1 [Compound 16, (R)-5-(4-Chlorophenyl)-1-cyclopropyl-4-(3-(4-(4-(4-((4-(dimethylamino)-1-(phenylthio)-butan-2-yl)amino)-3-nitrophenylsulfonamido)phenyl)piperazin-1-yl)phenyl)-2-methyl-1H-pyrrole-3-carboxylic acid] as the molecule, how does the “times less potent than 12 in binding to Bcl-2” value [8] read?
Its value is 10 times.

Which results are given for “(R)-5-(4-Chlorophenyl)-4-(3-(4-(4-(((4-((4-(dimethylamino)-1-(phenylthio)butan-2-yl)amino)phenyl)sulfonyl)carbamoyl)phenyl)piperazin-1-yl)phenyl)-1,2-dimethyl-N-(3-(4-methylpiperazin-1-yl)propyl)-1H-pyrrole-3-carboxamide [Compound 9]”?
IC50 ([6]; read-out: Cell Growth Inhibition (IC50 ± SD) H146, H146): > 10 µM; IC50 ([7]; read-out: Cell Growth Inhibition (IC50 ± SD) H1417, H1417): > 10 µM; IC50 [14]: > 10 µM
